Data taken from PubChem BioAssay (NCI).
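Protocol summary: plate cells (96-well), add compound at 5 concentrations, incubate 48 h, interpolate endpoints linearly. TGI is the concentration that stops growth completely.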

Tests used:
Assay in all cases: growth of human tumour cells (NCI), 48 h
A549 NSCLC = tested on: A549 NSCLC
COLO 205 colon = tested on: COLO 205 colon
DMS 114 small cell lung = tested on: DMS 114 small cell lung
EKVX NSCLC = tested on: EKVX NSCLC
HL-60(TB) leukemia = tested on: HL-60(TB) leukemia
IGROV1 ovarian = tested on: IGROV1 ovarian
M14 melanoma = tested on: M14 melanoma
MOLT-4 leukemia = tested on: MOLT-4 leukemia
NCI-H23 lung = tested on: NCI-H23 lung
NCI-H460 lung = tested on: NCI-H460 lung
OVCAR-8 ovarian = tested on: OVCAR-8 ovarian
RPMI-8226 leukemia = tested on: RPMI-8226 leukemia
RXF 393 renal = tested on: RXF 393 renal
SF-268 CNS = tested on: SF-268 CNS
SK-MEL-28 melanoma = tested on: SK-MEL-28 melanoma
SK-MEL-5 melanoma = tested on: SK-MEL-5 melanoma
SNB-19 CNS = tested on: SNB-19 CNS
SR leukemia = tested on: SR leukemia
SW-620 colon = tested on: SW-620 colon
UO-31 renal = tested on: UO-31 renal

Measured: TGI

O=C1CCC(c2ccccc2)=NN1c1nsc2ccccc12
> 100 µM: A549 NSCLC | COLO 205 colon | DMS 114 small cell lung | EKVX NSCLC | HL-60(TB) leukemia | IGROV1 ovarian | M14 melanoma | MOLT-4 leukemia | NCI-H23 lung | NCI-H460 lung | OVCAR-8 ovarian | RPMI-8226 leukemia | RXF 393 renal | SF-268 CNS | SK-MEL-28 melanoma | SK-MEL-5 melanoma | SNB-19 CNS | SR leukemia | SW-620 colon | UO-31 renal

COc1cccc(N2C(Cl)C(=O)C2c2c[nH]c3ccccc23)c1 (stereo not given)
> 100 µM: A549 NSCLC | COLO 205 colon | DMS 114 small cell lung | EKVX NSCLC | HL-60(TB) leukemia | IGROV1 ovarian | M14 melanoma | MOLT-4 leukemia | NCI-H23 lung | NCI-H460 lung | OVCAR-8 ovarian | RPMI-8226 leukemia | RXF 393 renal | SF-268 CNS | SK-MEL-28 melanoma | SK-MEL-5 melanoma | SNB-19 CNS | SR leukemia | SW-620 colon | UO-31 renal
